Measurements reported in patent publication US8299072B2, “Pyrazolylmethylamine compounds as calcium channel modulators and preparation method thereof” (Korea Institute of Science and Technology, priority 2008, dated 2012).

Target: T1, α1G T-type calcium channel (Homo sapiens, UniProt O43497)
T1 construct: expressed in transfected cells; host or cells: HEK293 cells stably expressing α1G, selected with G-418; The cell line KCTC 10519BP is named only for the FDSS6000 screen
Experiment: T-type calcium channel activity by electrophysiological whole-cell patch-clamp technique
Type: cell-based
Details: HEK293 cells stably expressing α1G T-type calcium channels, inhibition of inward peak currents, test pulse −30 mV, holding −100 mV
Experimental: The novel compounds of the present invention represented by the above formula 1 were tested for their antagonistic activities with regard to T-type calcium channel as follows.
2) Methods for the Measurements of T-Type Calcium Channel Activity Using an Electrophysiological Whole-Cell Patch-Clamp Technique
HEK293 cells stably expressing T-type calcium channels were cultured in DMEM (Dulbecco's modified Eagle's medium) containing 10% (v/v) fetal bovine serum and 1% penicillin/streptomycin (v/v) in humidified 5% CO2 at 36.5° C. Cells expressing α1G T-type calcium channels were selected using G-418 (0.5 mg/mL) in the culture medium. The culture medium was replaced with a fresh one every 3-4 days, and cells were subcultured every week.
Cells were seeded on the coverglass coated with poly-L-lysine (0.5 mg/mL) for the measurements of T-type calcium channel activity 2-7 days prior to the recordings. Whole-cell recordings of T-type calcium channel currents were performed using an EPC-9 patch clamp amplifier (HEKA, Germany). Whole-cell currents were recorded using micropipettes with resistance of 3-4MΩ with the pipette (intracellular) solution containing (in mM): 130 KCl, 11 EGTA, 5 Mg-ATP, and 10 HEPES, pH to 7.4 and with the bath (extracellular) solution containing (in mM): 140 NaCl, 2 CaCl2, and 10 HEPES, pH to 7.4. The inward currents of T-type calcium channels were evoked by the test pulses of −30 mV for 50 ms at a holding potential of −100 mV every 10 seconds.
Each compound was dissolved in dimethylsulfoxide (DMSO) as 10 mM stock solutions and diluted in the bath solution to 10 μM (containing 0.1% DMSO). […] More specifically, each compound was perfused to the bath for about 30-60 seconds, and the inhibition of the inward peak currents by a test compound was calculated as a percent inhibition from which IC50 values were determined.

T1 sequence (O43497 whole entry): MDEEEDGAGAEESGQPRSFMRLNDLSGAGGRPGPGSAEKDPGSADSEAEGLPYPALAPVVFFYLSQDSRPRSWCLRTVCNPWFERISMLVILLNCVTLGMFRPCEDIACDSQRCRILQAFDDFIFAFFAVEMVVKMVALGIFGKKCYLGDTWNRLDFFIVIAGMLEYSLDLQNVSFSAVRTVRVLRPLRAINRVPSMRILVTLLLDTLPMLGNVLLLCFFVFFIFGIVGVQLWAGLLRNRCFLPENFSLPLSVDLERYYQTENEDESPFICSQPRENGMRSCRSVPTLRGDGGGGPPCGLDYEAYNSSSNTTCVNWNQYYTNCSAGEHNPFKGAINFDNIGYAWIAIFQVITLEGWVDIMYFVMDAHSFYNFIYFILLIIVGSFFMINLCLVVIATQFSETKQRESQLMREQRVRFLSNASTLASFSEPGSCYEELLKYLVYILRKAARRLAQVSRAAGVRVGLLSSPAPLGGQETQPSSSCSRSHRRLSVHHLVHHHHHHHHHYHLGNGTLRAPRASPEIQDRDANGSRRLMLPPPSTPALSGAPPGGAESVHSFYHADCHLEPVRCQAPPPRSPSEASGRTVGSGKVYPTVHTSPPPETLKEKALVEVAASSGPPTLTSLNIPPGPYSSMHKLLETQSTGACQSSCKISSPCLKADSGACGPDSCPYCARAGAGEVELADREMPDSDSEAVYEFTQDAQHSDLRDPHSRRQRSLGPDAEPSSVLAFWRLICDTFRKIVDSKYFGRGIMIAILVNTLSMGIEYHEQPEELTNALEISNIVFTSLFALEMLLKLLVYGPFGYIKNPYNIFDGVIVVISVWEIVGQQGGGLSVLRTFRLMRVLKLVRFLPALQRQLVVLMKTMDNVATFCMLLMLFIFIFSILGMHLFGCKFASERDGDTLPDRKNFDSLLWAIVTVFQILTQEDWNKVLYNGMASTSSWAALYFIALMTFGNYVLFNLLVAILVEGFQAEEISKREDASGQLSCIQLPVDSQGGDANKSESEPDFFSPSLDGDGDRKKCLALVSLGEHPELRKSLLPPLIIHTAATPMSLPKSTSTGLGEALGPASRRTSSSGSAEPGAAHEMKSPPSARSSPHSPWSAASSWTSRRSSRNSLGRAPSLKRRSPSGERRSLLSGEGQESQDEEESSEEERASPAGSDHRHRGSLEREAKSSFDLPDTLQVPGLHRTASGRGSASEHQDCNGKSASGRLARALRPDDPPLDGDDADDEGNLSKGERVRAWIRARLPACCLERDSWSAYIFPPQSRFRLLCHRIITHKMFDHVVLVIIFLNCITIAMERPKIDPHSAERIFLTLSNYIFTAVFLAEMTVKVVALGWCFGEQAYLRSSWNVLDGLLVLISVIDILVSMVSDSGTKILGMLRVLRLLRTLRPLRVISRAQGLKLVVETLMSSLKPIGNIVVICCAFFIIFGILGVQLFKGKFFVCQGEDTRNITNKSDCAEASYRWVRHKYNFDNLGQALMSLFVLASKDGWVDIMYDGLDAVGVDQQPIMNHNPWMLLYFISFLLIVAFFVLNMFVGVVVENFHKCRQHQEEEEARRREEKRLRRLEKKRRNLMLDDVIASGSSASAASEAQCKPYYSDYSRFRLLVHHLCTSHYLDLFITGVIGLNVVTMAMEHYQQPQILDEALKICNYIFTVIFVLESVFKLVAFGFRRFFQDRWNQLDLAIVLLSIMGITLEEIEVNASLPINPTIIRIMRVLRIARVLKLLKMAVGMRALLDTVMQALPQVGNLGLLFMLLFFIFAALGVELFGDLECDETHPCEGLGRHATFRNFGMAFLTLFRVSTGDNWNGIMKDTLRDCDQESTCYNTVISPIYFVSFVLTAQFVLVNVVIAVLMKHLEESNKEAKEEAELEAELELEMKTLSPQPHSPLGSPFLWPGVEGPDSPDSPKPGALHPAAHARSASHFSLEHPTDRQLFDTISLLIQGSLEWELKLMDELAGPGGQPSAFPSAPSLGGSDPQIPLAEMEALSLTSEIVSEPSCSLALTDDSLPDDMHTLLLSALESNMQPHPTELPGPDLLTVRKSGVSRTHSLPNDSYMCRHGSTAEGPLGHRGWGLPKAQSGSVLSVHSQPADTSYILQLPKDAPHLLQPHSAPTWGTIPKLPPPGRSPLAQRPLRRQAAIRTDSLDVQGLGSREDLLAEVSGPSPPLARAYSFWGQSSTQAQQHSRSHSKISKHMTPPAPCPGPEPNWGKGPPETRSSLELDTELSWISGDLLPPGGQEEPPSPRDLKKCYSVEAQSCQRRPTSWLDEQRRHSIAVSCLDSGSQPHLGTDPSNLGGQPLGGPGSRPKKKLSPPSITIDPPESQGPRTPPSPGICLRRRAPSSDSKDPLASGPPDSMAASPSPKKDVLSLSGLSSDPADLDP

IC50	SMILES
20 ± 10 nM	Cc1cccc(N2CCN(CC(=O)NCc3cc(C)n(-c4ccccc4)n3)CC2)c1C [Compound No. 1, 3-{[4-(2,3-dimethyl)phenylpiperazin-1-yl]methylcarboxamido}methyl-5-methyl-1-phenyl-1H-pyrazole]
1830 ± 120 nM	Cc1cc(CNC(=O)CN2CCN(C(c3ccccc3)c3ccccc3)CC2)nn1-c1ccccc1 [Compound No. 3, 3-[(4-benzhydrylpiperazin-1-yl)methylcarboxamido]methyl-5-methyl-1-phenyl-1H-pyrazole]
1420 ± 160 nM	Cc1cc(CNC(=O)CN2CCN(Cc3cccc(C(F)(F)F)c3)CC2)nn1-c1ccccc1 [Compound No. 5, 3-{[4-(3-trifluoromethyl)benzylpiperazin-1-yl]methylcarboxamido}methyl-5-methyl-1-phenyl-1H-pyrazole]
1420 ± 160 nM	Cc1cc(CNC(=O)CN2CCN(Cc3ccc(Cl)c(Cl)c3)CC2)nn1-c1ccccc1 [Compound No. 6, 3-{[4-(3,4-dichlorobenzyl)piperazin-1-yl]methylcarboxamido}methyl-5-methyl-1-phenyl-1H-pyrazole]
3540 ± 90 nM	CC(C)Cc1cc(CNC(=O)CN2CCN(c3ccccc3)CC2)nn1-c1ccccc1 [Compound No. 9, 3-[(4-phenylpiperazin-1-yl)methylcarboxamido]methyl-5-isobutyl-1-phenyl-1H-pyrazole]
2570 ± 170 nM	O=C(CN1CCN(c2ccccc2)CC1)NCc1cc(-c2ccco2)n(-c2ccccc2)n1 [Compound No. 11, 3-[(4-phenylpiperazin-1-yl)methylcarboxamido]methyl-5-furyl-1-phenyl-1H-pyrazole]
1770 ± 100 nM	CC(C)Cc1cc(CNC(=O)CN2CCN(Cc3ccc(C(F)(F)F)cc3)CC2)nn1-c1ccccc1 [Compound No. 16, 3-{[4-(4-trifluoromethylbenzyl)piperazin-1-yl]methylcarboxamido}methyl-5-isobutyl-1-phenyl-1H-pyrazole]
5100 ± 110 nM	CCCc1cc(CNC(=O)CN2CCN(c3ccccc3)CC2)nn1-c1ccccc1 [Compound No. 27, 3-[(4-phenylpiperazin-1-yl)methylcarboxamido}methyl-5-propyl-1-phenyl-1H-pyrazole]
1810 ± 90 nM	CCCc1cc(CNC(=O)CN2CCN(Cc3ccc(C(F)(F)F)cc3)CC2)nn1-c1ccccc1 [Compound No. 32, 3-{[4-(4-trifluoromethyl)benzylpiperazin-1-yl]methylcarboxamido}methyl-5-propyl-1-phenyl-1H-pyrazole]
9560 ± 1420 nM	CCCc1cc(CNC(=O)CN2CCN(Cc3ccc4c(c3)OCO4)CC2)nn1-c1ccccc1 [Compound No. 33, 3-[(4-piperonylpiperazin-1-yl)methylcarboxamido]methyl-5-propyl-1-phenyl-1H-pyrazole]
9420 ± 700 nM	CC(C)Cc1cc(CNC(=O)CN2CCN(c3ccccn3)CC2)nn1-c1ccccc1 [Compound No. 36, 3-{[4-(2-pyridyl)piperazin-1-yl]methylcarboxamido}methyl-5-isobutyl-1-phenyl-1H-pyrazole]
2060 ± 1200 nM	Cc1cccc(N2CCN(C(=O)CNCc3cc(C)n(-c4ccccc4)n3)CC2)c1C [Compound No. 64, 3-{[4-(2,3-dimethylphenyl)piperazin-1-yl]carbonylmethylamino}methyl-5-methyl-1-phenyl-1H-pyrazole]
3500 ± 350 nM	Cc1cc(CNCC(=O)N2CCN(C(c3ccccc3)c3ccccc3)CC2)nn1-c1ccccc1 [Compound No. 65, 3-[(4-benzhydrylpiperazin-1-yl)carbonylmethylamino]methyl-5-methyl-1-phenyl-1H-pyrazole]
400 ± 40 nM	Cc1ccc(N2CCN(C(=O)CNCc3cc(CC(C)C)n(-c4ccccc4)n3)CC2)c(C)c1 [Compound No. 69, 3-{[4-(2,4-dimethylphenyl)piperazin-1-yl]carbonylmethylamino}methyl-5-isobutyl-1-phenyl-1H-pyrazole]
300 ± 10 nM	CC(C)Cc1cc(CNCC(=O)N2CCN(Cc3ccc(Cl)c(Cl)c3)CC2)nn1-c1ccccc1 [Compound No. 75, 3-{[4-(3,4-dichlorobenzyl)piperazin-1-yl]carbonylmethylamino}methyl-5-isobutyl-1-phenyl-1H-pyrazole]
360 ± 30 nM	Cc1cccc(N2CCN(C(=O)CNCc3cc(CC(C)C)n(-c4ccccc4)n3)CC2)c1C [Compound No. 76, 3-{[4-(2,3-dimethylphenyl)piperazin-1-yl]carbonylmethylamino}methyl-5-isobutyl-1-phenyl-1H-pyrazole]
